{"source": "patent US20100311170A1", "about": "“METHOD FOR REPROGRAMMING DIFFERENTIATED CELLS” (priority 2008, published 2010)", "type_in_all_cases": "cell-based, mouse", "key": {"[1]": {"test_system": "ES-neo cells with ES-Hygro cells", "assay": "PEG fusion of BIO-pretreated ES-neo cells with ES-Hygro cells (fusion control)", "procedure": "FIG. 6. […] Plates containing fused hybrid colonies between ES-neo cells (treated or not for 24 h with BIO) and non-treated ES-hygro cells. The clones were stained for the expression of AP and counted. The fold-change of colonies are shown in the graphs (mean±s.e.m.; n=3). (B) Quantification (as fold-increases in the number of colonies) of hybrid colonies from PEG fusions of ES-neo cells with NS-Oct4-puro cells. Hybrids from two fusion experiments (2,000,000 cells/flask) were allowed to recover for 3 h after PEG fusion. They were then pooled and divided in 5 plates ([…]) in such a way that the cells were not touching each other. Two hours after the plating, the cells were treated with BIO, as indicated. The fold-change increases in the reprogrammed colonies are shown in the graphs (mean±s.e.m.; n=3)."}, "[2]": {"test_system": "ES cells fused with NS-Oct4-puro cells", "assay": "Pretreated-ES×NS PEG fusions (ES cells pre-cultured with Wnt3a or BIO, then fused with non-treated NS-Oct4-puro cells)", "settings": "for enhancement of NS reprogramming: ES cells cultured for 12, 48 and 72 h; for total reprogrammed clones / increase in the numbers of reprogrammed clones: ES cells pre-cultured for 24 h and 96 h; for increase in the numbers of reprogrammed clones: Wnt3a 100 ng/ml or BIO 1 μM", "procedure": "On the last day, the cells were trypsinized, counted, and plated on NS cells for fusions or harvested for RNA and protein analyses. PEG fusions and drug selection were performed as previously described."}, "[3]": {"test_system": "Topflash reporter gene (β-catenin binding sites fused to luciferase)", "assay": "Topflash luciferase reporter assay in ES cells", "settings": "24 h", "procedure": "ES cells were co-transfected by nucleofection (Amaxa) with the Topflash reporter construct driving firefly luciferase cDNA and a pRL-CMV driving constitutive expression of renilla cDNA for normalization. Treatments with Wnt3a and BIO were carried out the day after the nucleofection and cells were lysed with 1× passive reporter lysis buffer. Firefly and renilla reporter activities were measured using a 96-well-based luminometer and were detected as per manufacturer instructions (Promega Dual-Light system),"}, "[4]": {"test_system": "EF4 cells and NS-Oct4-(LV-Hygro) cells", "assay": "PEG fusions between BIO-pretreated EF4 (Nanog over-expressing) cells and NS-Oct4-(LV-Hygro) cells", "settings": "BIO-pretreated EF4 cells", "procedure": "NS-Oct4-(LV-Hygro) cells were derived from NS-Oct4-puro and transduced with the letiviral pHRcPPT-PGK-Hygromycin vector. EF4 cells carrying the CAG promoter driving Nanog and Puromycin resistance genes were a gift of Dr. I. Chambers. Cells were cultured as previously described (Chambers et al., 2003).\nNS×ES-Hygro or NS-HygroxEF4 cells PEG fusions were done as previously described. For the NS×ES-Hygro and NS×EF4 selection, Puromycin plus Hygromycin was added after 72 h."}, "β-catenin": {"test_system": "β-catenin", "assay": "Western blotting and immunofluorescence of β-catenin in treated ES cells", "procedure": "ES cells were washed twice with phosphate-buffered saline (PBS), fixed with 4% paraformaldehyde and blocked in 5% goat serum for 40 min. […] The cells were then washed and mounted on slides with a few drops of Vectashield with DAPI (Vector Laboratories)."}, "[5]": {"test_system": "ES-neo×NS-Oct4-puro cells", "assay": "PEG fusion of ES-neo cells with NS-Oct4-puro cells, hybrids treated after fusion; AP-positive puromycin-resistant reprogrammed colonies counted", "settings": "for reprogrammed clones with respect to the control (fold): 24 h culture after fusion, Wnt3a 100 ng/ml or BIO 1 μM; for number of reprogrammed clones after prolonged treatment: 48 h of treatment after fusion", "procedure": "(§1) ES×NS and ES×MEF PEG fusions: 1.2×10^6 NS cells or MEFs were plated into T25 flasks. After 2 h, 1.2×10^6 ES cells were plated onto them, allowing them to attach to the NS cells or MEFs."}, "[6]": {"test_system": "ES-hygro×thymocyte-neo cells", "assay": "ES×thymocyte fusion, hybrids cultured in BIO; reprogrammed clones counted", "procedure": "ES×thymocyte fusions: the cells were fused in suspensions as previously described (Silva et al., 2006). After fusion, they were packed by centrifugation and the supernatant was discarded. The pelleted cells were resuspended in complete ES-cell medium and plated. The selection was carried out after 24 h, using hygromycin plus neomycin."}, "NS-Oct4-puro cells": {"test_system": "NS-Oct4-puro cells", "assay": "BIO-pretreated NS-Oct4-puro cells fused with non-treated ES-neo cells", "settings": "NS cells pretreated with BIO before fusion", "procedure": "FIG. 12. […] (A) Plates containing fused hybrid colonies between BIO-treated NS-Oct4-puro cells and non-treated ES-neo cells. The clones were stained for the expression of AP and counted. The fold-change increases in the reprogrammed colonies are shown in the graph (mean±s.e.m.; n=3). (B) Example of a reprogrammed colony isolated from ES-neo cells fused with NS-Oct4-puro cells pretreated with BIO for 24 h. (C) Western blotting of total protein extracts of the NS-Oct4-puro cells at the indicated treatment times.\nES×NS and ES×MEF PEG fusions: 1.2×10^6 NS cells or MEFs were plated into T25 flasks. After 2 h, 1.2×10^6 ES cells were plated onto them, allowing them to attach to the NS cells or MEFs. After a further 2 h, 1 ml 50% (w/v) PEG 1450 (Sigma; pre-warmed to 37° C.) was added for 2 min, and then the cells were washed three times with serum-free DMEM. […] After 12 h, the cells were trypsinized and plated into gelatin+laminin-treated p100 dishes. For the ES×NS selection, puromycin was added after 72 h, while for the ES×MEF selection, hygromycin plus neomycin were added after 24 h."}, "[7]": {"test_system": "Nanog, Oct4, Rex1, Fgf4, c-Myc", "assay": "Semiquantitative and quantitative RT-PCR of ES-cell genes and β-catenin targets in pretreated ES cells", "settings": "for expression of pluripotent genes Nanog, Oct4, Rex1 and Fgf4: all treatment times; for c-Myc expression: under Wnt3a and BIO treatments", "procedure": "For RT-PCR, the total RNA was extracted from ES cells and from embryoid bodies (200 embryoid bodies for each clone and for each differentiation time point) using the RNeasy Kit (Qiagen), and the cDNA was generated using superscript III (Invitrogen). The primers used were: […]\nRNA isolation and reverse transcription were carried out as described for semiquantitative RT-PCR. The template for each PCR reaction was the cDNA obtained from 16 ng total RNA in a 25-μl reaction volume. Platinum SYBR green qPCix-UDG (Invitrogen) was used with an ABprism 7000 real-time PCR machine, according to the manufacturer recommendations. The primers used were: […]"}, "[8]": {"test_system": "ES-GFP cells with NS-Oct4-puro cells", "assay": "FACS analysis of the primary fusion products (ES-GFP × NS-Oct4-puro, 3 h after PEG fusion)", "procedure": "ES-GFP cells were treated or not with BIO for 12, 24, 48, 72 and 96 h and subsequently PEG fused with NS-Oct4-puro cells. Hybrids were trypsinized, counted, resuspended in PBS (1×10^6 cells per point) and centrifuged. Then, 0.1 ml of 4% paraformaldehyde solution was added to the cells and they were incubated for 15 min. Blocking solution (0.1% Triton, 10% goat-serum, in PBS) was subsequently added and the cells incubated for 1 h. The cells were then labelled with α-nestin (1:100) (ab6142, Abcan) overnight. The day after, the cells were incubated with the secondary antibody conjugated with PE fluorocrome (1:50) (ab7002 Abcam) for 1 h. FACS analyses were performed using a BDBiosciences FACSAria cytometer."}, "ES-neo×MEF-hygro": {"test_system": "ES-neo×MEF-hygro", "assay": "PEG fusion of ES-neo cells with MEF-hygro cells, hybrids treated after fusion; reprogrammed AP-positive clones counted", "procedure": "as §1"}, "NS cells": {"test_system": "NS cells", "assay": "Toxicity of BIO to NS cells (data not shown)", "settings": "BIO concentrations higher than 1 μM"}, "[9]": {"test_system": "ES-neo cells and ES×NS reprogrammed hybrids", "assay": "Clonogenicity and viability of ES cells and hybrids plated in BIO-containing medium", "settings": "scaled numbers plated", "procedure": "FIG. 4. […] ES-neo cells (A) and ES×NS reprogrammed hybrids (B) (treated or not for 24 h with BIO) were plated at different densities. After 10 days, the plates were stained for AP and counted. The fold-changes in colonies are shown in the graphs (mean±s.e.m.; n=3)."}, "[10]": {"settings": "increasing BIO concentrations, 24 h"}, "[11]": {"settings": "cultured in BIO for 12, 24 and 48 h, double-drug selected"}, "[12]": {"settings": "increased treatment time with BIO"}}}
{"molecule": "O=C1Nc2cc(Br)ccc2/C1=C1/Nc2ccccc2/C1=N\\O", "note": "[BIO, 6-bromoindirubin-3′-oxime]", "values": [{"measurement": "number of clones after ES×ES fusion (PEG-mediated fusion)", "setting": "[1]", "value": "only a slight increase"}, {"measurement": "enhancement of NS reprogramming", "setting": "[2]", "value": "poor enhancement"}, {"measurement": "total reprogrammed clones", "setting": "[2]", "value": "about 2,000 total clones"}, {"measurement": "increase in the numbers of reprogrammed clones", "setting": "[2]", "value": "≤ 80", "unit": "fold"}, {"measurement": "activation of the Topflash reporter gene", "setting": "[3]; 1 μM BIO", "value": "relatively limited activation"}, {"measurement": "Topflash activation with increasing concentration", "setting": "[3]; increasing BIO concentrations", "value": "increased Topflash activation"}, {"measurement": "reprogramming of NS cells with Nanog over-expression plus Wnt pathway activation", "setting": "[4]", "value": "cooperate to enhance reprogramming"}, {"measurement": "inhibition of GSK-3 in ES cells", "setting": "β-catenin; 1 μM BIO", "value": "not fully inhibited"}, {"measurement": "levels of phospho-β-catenin with increasing concentration", "setting": "β-catenin; [10]", "value": "decreased levels of phospho-β-catenin"}, {"measurement": "β-catenin nuclear localization with increasing concentration", "setting": "β-catenin; [10]", "value": "increased β-catenin nuclear localization"}, {"measurement": "reprogrammed clones with respect to the control (fold)", "setting": "[5]", "value": "up to 70 fold"}, {"measurement": "number of reprogrammed clones after prolonged treatment", "setting": "[5]", "value": "decreased"}, {"measurement": "time of BIO treatment giving the peak of reprogrammed clones", "setting": "[5]; hybrids re-plated 3 h after fusion at a dilution without cell contact, BIO for 12, 24, 48 and 72 h", "value": 24, "unit": "h"}, {"measurement": "increase in numbers of reprogrammed selected clones vs fusions in the absence of BIO", "setting": "[6]; [11]", "value": "≤ 9", "unit": "fold"}, {"measurement": "reprogramming efficiency with increased treatment time", "setting": "[6]; [12]", "value": "lower"}, {"measurement": "number of ES-cell-like, AP-positive reprogrammed clones", "setting": "NS-Oct4-puro cells", "value": "only a slight increase"}, {"measurement": "expression of pluripotent genes Nanog, Oct4, Rex1 and Fgf4", "setting": "[7]", "value": "same levels"}, {"measurement": "c-Myc expression", "setting": "[7]", "value": "constantly expressed"}, {"measurement": "number of hybrid clones, ES cells pre-treated or not with BIO before fusion", "setting": "[8]", "value": "same number of hybrid clones"}, {"measurement": "increase in numbers of reprogrammed selected clones vs fusions in the absence of BIO", "setting": "ES-neo×MEF-hygro; [11]", "value": "up to 20 fold"}, {"measurement": "reprogramming efficiency with increased treatment time", "setting": "ES-neo×MEF-hygro; [12]", "value": "lower"}, {"measurement": "toxicity to NS cells", "setting": "NS cells", "value": "slightly toxic"}, {"measurement": "clonogenicity and viability in absence vs presence of BIO", "setting": "[9]", "value": "equal"}]}
{"molecule": "Wnt3a: Wnt protein isoform (R&D), Wnt/β-catenin pathway activator (protein, UniProt P56704 19-352, looked up) Protein Wnt-3a: SYPIWWSLAVGPQYSSLGSQPILCASIPGLVPKQLRFCRNYVEIMPSVAEGIKIGIQECQHQFRGRRWNCTTVHDSLAIFGPVLDKATRESAFVHAIASAGVAFAVTRSCAEGTAAICGCSSRHQGSPGKGWKWGGCSEDIEFGGMVSREFADARENRPDARSAMNRHNNEAGRQAIASHMHLKCKCHGLSGSCEVKTCWWSQPDFRAIGDFLKDKYDSASEMVVEKHRESRGWVETLRPRYTYFKVPTERDLVYYEASPNFCEPNPETGSFGTRDRTCNVSSHGIDGCDLLCCGRGHNARAERRREKCRCVFHWCCYVSCQECTRVYDVHTCK", "values": [{"measurement": "enhancement of NS reprogramming", "setting": "[2]", "value": "poor enhancement"}, {"measurement": "total reprogrammed clones", "setting": "[2]", "value": "about 600 total clones"}, {"measurement": "increase in the numbers of reprogrammed clones", "setting": "[2]", "value": "Up to 15 fold"}, {"measurement": "reprogrammed clones with respect to the control (fold)", "setting": "[5]", "value": "up to 20 fold"}, {"measurement": "number of reprogrammed clones after prolonged treatment", "setting": "[5]", "value": "decreased"}, {"measurement": "expression of pluripotent genes Nanog, Oct4, Rex1 and Fgf4", "setting": "[7]", "value": "same levels"}, {"measurement": "c-Myc expression", "setting": "[7]", "value": "constantly expressed"}, {"measurement": "increase in number of AP-positive reprogrammed clones", "setting": "ES-neo×MEF-hygro; hybrids cultured with Wnt3a for 48 h", "value": "up to 5 fold"}]}
